pIC50: −log10 of the molar value. ≈ marks a conversion by molar mass, not a printed value.
Experiments:
[1] = target: KRAS G12C (GMPPNP-loaded) and cRAF (Ras-binding domain) interaction (Homo sapiens (Human), UniProt P01116, C118S/C51S/C80L/G12C); assay: Inhibition of KRAS G12C and cRAF binding (AlphaScreen); conditions: KRAS G12C loaded with GMPPNP, cRaf RBD, 2 hours preincubation; read-out: Raf-1 RBD K-Ras IC50
Summary of the method: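 GMPPNP-loaded KRAS G12C in 25 mM Hepes pH 7.4, 150 mM NaCl, 5 mM MgCl2, 0.01% Triton X-100, 10 μM GMPPNP, 2% DMSO, preincubated with compound 2 h at room temperature. cRAF RBD plus AlphaScreen beads then added for 60-90 min; signal read at 570 nm.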

[2] = target: KRAS G12C (GMPPNP-loaded) and PI3Ka (Ras-binding domain) interaction (Homo sapiens (Human), UniProt P01116, C118S/C51S/C80L/G12C); assay: Inhibition of KRAS G12C and PI3Ka binding (AlphaScreen); conditions: KRAS G12C loaded with GMPPNP, PI3Ka RBD, 2 hours preincubation; read-out: PI3K RBD K-Ras IC50
Experimental: The AlphaScreen technology was used to determine IC50S for compound inhibition of KRAS G12C (present as the Cys-light (C51S, C80L and C118S), truncated version comprising amino acids 1-169) and PI3Ka interaction. Compounds were diluted in 100% DMSO and each compound concentration was spotted at 200 nl/well onto low volume, white 384 well plates. The KRAS G12C contained a biotin-AviTag and the PI3Ka, as Ras-binding domain (amino acids 157-300, RBD), was His-tagged. KRAS G12C was preloaded with the GTP analogue Guanosine 5′-[β,γ-imido]triphosphate (GMPPNP). The KRAS G12C was diluted in 25 mM Hepes, pH 7.4, 150 mM NaCl, 5 mM MgCl2, 0.01% TritonX-100 and 10 μM GMPPNP and added at 10 ul/well to compound-spotted plates resulting in a DMSO concentration of 2%. Plates were incubated for 2 hours. A mixture of RBD and the AlphaScreen streptavidin donor and nickel chelate acceptor beads diluted in 25 mM Hepes, pH 7.4, 150 mM NaCl, 5 mM MgCl2, 0.01% TritonX-100 and 2% DMSO was then added at 10 ul/well and incubated for 60-90 minutes before the samples were read for emission at 570 nm after excitation of the donor beads at 680 nm. All incubations were performed at room temperature. The final top compound concentration was 50 μM with 1:3 titrations for 10-point dose response curves. Final assay conditions were 1.5 nM KRAS G12C, 100 nM RBD, 1.25 ug/ml of AlphaScreen donor beads and 10 μg/ml AlphaLISA acceptor beads. IC50s were determined using nonlinear regression fit of [inhibitor] vs. response (4 parameters). […]

[3] = Determination of logD (1-octanol / phosphate buffer pH 7.4); type: physicochemical; conditions: 1-octanol/phosphate buffer, pH 7.4, pH 7.4, 1-octanol/phosphate buffer; read-out: Log D, pH 7.4
Summary of the method: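 Shake-flask partition between 1-octanol and 100 mM phosphate buffer pH 7.4, each phase presaturated with the other overnight. Tubes shaken 1 h at 800 rpm, room temperature, then centrifuged. Both phases quantified by LCMS and logD calculated from the ratio.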

[4] = Determination of kinetic solubility (pH 7.4); type: physicochemical; conditions: phosphate buffer, pH 7.4, aqueous buffer, kinetic from dmso stock, 50 mM phosphate buffer pH 7.4, read-out: Ksol, pH 7.4
Summary of the method: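 Sample mixed with 50 mM phosphate buffer, pH 7.4, vortexed, then shaken 2 h at room temperature and centrifuged. Filtrate analysed by HPLC-UV and LC-MS/MS, with solubility read from peak areas against a standard calibration curve.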

KRAS G12C (GMPPNP-loaded) and PI3Ka (Ras-binding domain) interaction, sequence (P01116 other isoform, or with tags, fused parts or gaps G12C/C51S/C80L/C118S): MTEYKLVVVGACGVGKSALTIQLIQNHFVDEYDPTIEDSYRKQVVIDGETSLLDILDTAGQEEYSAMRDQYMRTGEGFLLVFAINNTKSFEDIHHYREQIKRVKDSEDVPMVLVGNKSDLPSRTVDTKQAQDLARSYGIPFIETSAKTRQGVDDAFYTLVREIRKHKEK
KRAS G12C (GMPPNP-loaded) and cRAF (Ras-binding domain) interaction, sequence (P01116 other isoform, or with tags, fused parts or gaps G12C/C51S/C80L/C118S): as above

| Compound | pIC50 [1] | pIC50 [2] | logD [3] | solubility kinetic at 2 h [4] [µg/mL] |
| --- | --- | --- | --- | --- |
| N#CC[C@H]1CN(c2nc(OC[C@@]34CCCN3C[C@H](F)C4)nc3c(F)c(-c4cccc5cccc(Cl)c45)ncc23)CCN1C(=O)/C=C/CN1CC2CCC(C1)O2 [Example 81, 2-((2S)-1-((E)-4-(8-oxa-3-azabicyclo[3.2.1]octan-3-yl)but-2-enoyl)-4-(7-(8-chloronaphthalen-1-yl)-8-fluoro-2-(((2R,7aS)-2-fluorohexahydro-1H-pyrrolizin-7a-yl)methoxy)pyrido[4,3-d]pyrimidin-4-yl)piperazin-2-yl)acetonitrile] | > 8.00 | > 8.00 | 3.7 | 74.4 (≈ 96.7 µM) |
| N#CC[C@H]1CN(c2nc(OC[C@@]34CCCN3C[C@H](F)C4)nc3c(F)c(-c4cccc5ccc(F)c(Cl)c45)ncc23)CCN1C(=O)/C=C/CN1CCC(F)(F)CC1 [Example 82, 2-((S)-4-(7-(8-chloro-7-fluoronaphthalen-1-yl)-8-fluoro-2-(((2R,7aS)-2-fluorotetrahydro-1H-pyrrolizin-7a(5H)-yl)methoxy)pyrido[4,3-d]pyrimidin-4-yl)-1-((E)-4-(4,4-difluoropiperidin-1-yl)but-2-enoyl)piperazin-2-yl)acetonitrile] | > 8.00 | > 8.00 | 4.2 | 3.46 (≈ 4.35 µM) |
| CC(C)c1noc(/C=C/C(=O)N2CCN(c3nc(OCC45CCCN4CCC5)nc4c3CCN(c3cccc5ccc(F)c(Cl)c35)C4)C[C@@H]2CC#N)n1 [Compound 126] | 7.00 to 8.00 | 7.00 to 8.00 | 4.24 | 0.01 (≈ 0.0135 µM) |
| CCc1noc(/C=C/C(=O)N2CCN(c3nc(OCC45CCCN4CCC5)nc4c(F)c(-c5cccc6cccc(Cl)c56)ncc34)C[C@@H]2CC#N)n1 [Compound 26] | 6.30 to 7.00 | 6.30 to 7.00 | 2.66 | 80.2 (≈ 111 µM) |
| N#CC[C@H]1CN(c2nc(OCC34CCCN3CCC4)nc3c2CCN(c2cccc4cccc(Cl)c24)C3)CCN1C(=O)/C=C/c1ccncn1 [Example 10, (S,E)-2-(4-(7-(8-chloronaphthalen-1-yl)-2-((hexahydro-1H-pyrrolizin-7a-yl)methoxy)-5,6,7,8-tetrahydropyrido[3,4-d]pyrimidin-4-yl)-1-(3-(pyrimidin-4-yl)acryloyl)piperazin-2-yl)acetonitrile] | > 8.00 | > 8.00 | 2.93 | 99 (≈ 143 µM) |
| Cc1nsc(/C=C/C(=O)N2CCN(c3nc(OC[C@@]45CCCN4C[C@H](F)C5)nc4c3CCN(c3cccc5cccc(Cl)c35)C4)C[C@@H]2CC#N)n1 [Compound 127] | > 8.00 | > 8.00 | 4.77 | 0.01 (≈ 0.0137 µM) |
| Cc1nsc(/C=C/C(=O)N2CCN(c3nc(OCC45CCCN4CCC5)nc4c(F)c(-c5cccc6cccc(Cl)c56)ncc34)C[C@@H]2CC#N)n1 [Compound 143] | > 8.00 | > 8.00 | 2.39 | 87.8 (≈ 121 µM) |
| Cc1nsc(/C=C/C(=O)N2CCN(c3nc(OCC45CCCN4CCC5)nc4c3CCN(c3cccc5ccc(F)c(Cl)c35)C4)C[C@@H]2CC#N)n1 [Compound 141] | > 8.00 | > 8.00 | 3.43 | 84 (≈ 115 µM) |
| C#Cc1c(F)ccc2cccc(-c3ncc4c(N5CCN(C(=O)/C=C/CN6CCOCC6)[C@@H](CC#N)C5)nc(OC[C@@]56CCCN5C[C@H](F)C6)nc4c3F)c12 [Compound 255] | > 8.00 | > 8.00 | 2.81 | 118 (≈ 158 µM) |
| N#CC[C@H]1CN(c2nc(OC[C@@]34CCCN3C[C@H](F)C4)nc3c(F)c(-c4cccc5ccc(F)c(F)c45)ncc23)CCN1C(=O)/C=C/CN1CCSCC1 [Compound 238] | > 8.00 | > 8.00 | 3.48 | 21.3 (≈ 28 µM) |
| N#CC[C@H]1CN(c2nc(OC[C@@]34CCCN3C[C@H](F)C4)nc3c(F)c(-c4cccc5ccc(F)c(Cl)c45)ncc23)CCN1C(=O)/C=C/CN1C[C@@H]2C[C@H]1CO2 [Example 71, 2-((S)-1-((E)-4-((1S,4S)-2-oxa-5-azabicyclo[2.2.1]heptan-5-yl)but-2-enoyl)-4-(7-(8-chloro-7-fluoronaphthalen-1-yl)-8-fluoro-2-(((2R,7aS)-2-fluorotetrahydro-1H-pyrrolizin-7a(5H)-yl)methoxy)pyrido[4,3-d]pyrimidin-4-yl)piperazin-2-yl)acetonitrile] | > 8.00 | > 8.00 | 2.9 | 88.9 (≈ 115 µM) |
| N#CC[C@H]1CN(c2nc(OC[C@@]34CCCN3C[C@H](F)C4)nc3c(F)c(-c4cccc5ccc(F)c(F)c45)ncc23)CCN1C(=O)/C=C/CN1C[C@H]2C[C@@H]1CO2 [Compound 218] | > 8.00 | > 8.00 | 2.54 | 56.4 (≈ 74.6 µM) |
| N#CC[C@H]1CN(c2nc(OC[C@@]34CCCN3C[C@H](F)C4)nc3c(F)c(-c4cccc5ccc(F)c(F)c45)ncc23)CCN1C(=O)/C=C/CN1[C@@H]2CC[C@H]1COC2 [Compound 93, 2-((S)-1-((E)-4-((1R,5S)-3-oxa-8-azabicyclo[3.2.1]octan-8-yl)but-2-enoyl)-4-(7-(7,8-difluoronaphthalen-1-yl)-8-fluoro-2-(((2R,7aS)-2-fluorotetrahydro-1H-pyrrolizin-7a(5H)-yl)methoxy)pyrido[4,3-d]pyrimidin-4-yl)piperazin-2-yl)acetonitrile] | > 8.00 | > 8.00 | 3.07 | 72.4 (≈ 94 µM) |
| N#CC[C@H]1CN(c2nc(OCC34CCCN3CCC4)nc3c2CCN(c2cccc4cccc(Cl)c24)C3)CCN1C(=O)/C=C/c1nc(C(F)F)no1 [Compound 19] | > 8.00 | > 8.00 | 3.33 | 24.4 (≈ 33.5 µM) |
| N#CC[C@H]1CN(c2nc(OC[C@@]34CCCN3C[C@H](F)C4)nc3c2CCN(c2cccc4cccc(Cl)c24)C3)CCN1C(=O)/C=C/CN1CCOCC1 [Compound 49] | > 8.00 | > 8.00 | 3.72 | 45.2 (≈ 62 µM) |
| N#CC[C@H]1CN(c2nc(OC[C@@]34CCCN3C[C@H](F)C4)nc3c2CCN(c2cccc4cccc(Cl)c24)C3)CCN1C(=O)/C=C/c1nc(C(F)F)no1 [Compound 18] | > 8.00 | > 8.00 | 4.78 | 0.01 (≈ 0.0134 µM) |
| Cc1nccc(/C=C/C(=O)N2CCN(c3nc(OCC45CCCN4CCC5)nc4c(F)c(-c5cccc6cccc(Cl)c56)ncc34)C[C@@H]2CC#N)n1 [Compound 139] | 7.00 to 8.00 | > 8.00 | 1.93 | 107 (≈ 150 µM) |
| CCO[C@@H]1CCN(C/C=C/C(=O)N2CCN(c3nc(OC[C@@]45CCCN4C[C@H](F)C5)nc4c(F)c(-c5cccc6cccc(Cl)c56)ncc34)C[C@@H]2CC#N)C1 [Compound 92, 2-((S)-4-(7-(8-chloronaphthalen-1-yl)-8-fluoro-2-(((2R,7aS)-2-fluorohexahydro-1H-pyrrolizin-7a-yl)methoxy)pyrido[4,3-d]pyrimidin-4-yl)-1-((E)-4-((R)-3-ethoxypyrrolidin-1-yl)but-2-enoyl)piperazin-2-yl)acetonitrile] | > 8.00 | > 8.00 | 3.35 | 104 (≈ 135 µM) |
| Cc1nsc(/C=C/C(=O)N2CCN(c3nc(OC[C@@]45CCCN4C[C@H](F)C5)nc4c(F)c(-c5cccc6cccc(Cl)c56)ncc34)C[C@@H]2CC#N)n1 [Compound 138] | > 8.00 | > 8.00 | 3.9 | 0.01 (≈ 0.0135 µM) |
| CO[C@H]1CCN(C/C=C/C(=O)N2CCN(c3nc(OC[C@@]45CCCN4C[C@H](F)C5)nc4c(F)c(-c5cccc6cccc(Cl)c56)ncc34)C[C@@H]2CC#N)C1 [Compound 190] | > 8.00 | > 8.00 | 2.86 | 94.7 (≈ 125 µM) |

— US20250129103A1, “METHODS FOR TREATMENT OF CANCER” (Frontier Medicines Corporation, priority 2022, published 2025)
